Columns and labels:
Striatum [1] = test: Biodistribution in BALB/c mouse striatum at 7 to 8 KBq, iv after 60 mins; assay type: ADME, organism-based; conditions: in vivo, 1 h
Lung [2] = test: Biodistribution in BALB/c mouse lung at 7 to 8 KBq, iv after 15 mins; assay type: ADME, organism-based; conditions: in vivo, 0.25 h
Liver [3] = test: Biodistribution in BALB/c mouse liver at 7 to 8 KBq, iv after 15 mins; assay type: ADME, organism-based; conditions: in vivo, 0.25 h
Heart [4] = test: Biodistribution in BALB/c mouse heart at 7 to 8 KBq, iv after 120 mins; assay type: ADME, organism-based; conditions: in vivo, 2 h
Liver [5] = test: Biodistribution in BALB/c mouse liver at 7 to 8 KBq, iv after 5 mins; assay type: ADME, organism-based; conditions: in vivo
Hippocampus = test: Biodistribution in BALB/c mouse hippocampus at 7 to 8 KBq, iv after 120 mins; assay type: ADME, organism-based; conditions: in vivo, 2 h
Thyroid gland [6] = test: Biodistribution in BALB/c mouse thyroid at 7 to 8 KBq, iv after 15 mins; assay type: ADME, organism-based; conditions: in vivo, 0.25 h
Stomach [7] = test: Biodistribution in BALB/c mouse stomach at 7 to 8 KBq, iv after 60 mins; assay type: ADME, organism-based; conditions: in vivo, 1 h
Thyroid gland [8] = test: Biodistribution in BALB/c mouse thyroid at 7 to 8 KBq, iv after 120 mins; assay type: ADME, organism-based; conditions: in vivo, 2 h
Pancreas [9] = test: Biodistribution in BALB/c mouse pancreas at 7 to 8 KBq, iv after 60 mins; assay type: ADME, organism-based; conditions: in vivo, 1 h
Cortex [10] = test: Biodistribution in BALB/c mouse cortex at 7 to 8 KBq, iv after 15 mins; assay type: ADME, organism-based; conditions: in vivo, 0.25 h
Pancreas [11] = test: Biodistribution in BALB/c mouse pancreas at 7 to 8 KBq, iv after 15 mins; assay type: ADME, organism-based; conditions: in vivo, 0.25 h
Blood [12] = test: Biodistribution in BALB/c mouse blood at 7 to 8 KBq, iv after 15 mins; assay type: ADME, organism-based; conditions: in vivo, 0.25 h
Mus musculus [13] = test: Biodistribution in BALB/c mouse lower body at 7 to 8 KBq, iv after 15 mins; assay type: ADME, organism-based; conditions: in vivo, 0.25 h
Medulla [14] = test: Biodistribution in BALB/c mouse medulla at 7 to 8 KBq, iv after 60 mins; assay type: ADME, organism-based, Medulla of organ; conditions: in vivo, 1 h
Stomach [15] = test: Biodistribution in BALB/c mouse stomach at 7 to 8 KBq, iv after 120 mins; assay type: ADME, organism-based; conditions: in vivo, 2 h
Mus musculus [16] = test: Biodistribution in BALB/c mouse lower body at 7 to 8 KBq, iv after 120 mins; assay type: ADME, organism-based; conditions: in vivo, 2 h
Liver [17] = test: Biodistribution in BALB/c mouse liver at 7 to 8 KBq, iv after 60 mins; assay type: ADME, organism-based; conditions: in vivo, 1 h
Liver [18] = test: Biodistribution in BALB/c mouse liver at 7 to 8 KBq, iv after 120 mins; assay type: ADME, organism-based; conditions: in vivo, 2 h
Blood [19] = test: Biodistribution in BALB/c mouse blood at 7 to 8 KBq, iv after 120 mins; assay type: ADME, organism-based; conditions: in vivo, 2 h
Mus musculus [20] = test: Biodistribution in BALB/c mouse lower body at 7 to 8 KBq, iv after 5 mins; assay type: ADME, organism-based; conditions: in vivo
Heart [21] = test: Biodistribution in BALB/c mouse heart at 7 to 8 KBq, iv after 5 mins; assay type: ADME, organism-based; conditions: in vivo
Striatum [22] = test: Biodistribution in BALB/c mouse striatum at 7 to 8 KBq, iv after 15 mins; assay type: ADME, organism-based; conditions: in vivo, 0.25 h
Spleen [23] = test: Biodistribution in BALB/c mouse spleen at 7 to 8 KBq, iv after 120 mins; assay type: ADME, organism-based; conditions: in vivo, 2 h
Brain [24] = test: Biodistribution in BALB/c mouse brain at 7 to 8 KBq, iv after 15 mins; assay type: ADME, organism-based; conditions: in vivo, 0.25 h
Intestine [25] = test: Biodistribution in BALB/c mouse intestine at 7 to 8 KBq, iv after 5 mins; assay type: ADME, organism-based; conditions: in vivo
Mus musculus [26] = test: Biodistribution in BALB/c mouse upper body at 7 to 8 KBq, iv after 5 mins; assay type: ADME, organism-based; conditions: in vivo
Kidney [27] = test: Biodistribution in BALB/c mouse kidney at 7 to 8 KBq, iv after 5 mins; assay type: ADME, organism-based; conditions: in vivo
Thalamus [28] = test: Biodistribution in BALB/c mouse thalamus at 7 to 8 KBq, iv after 120 mins; assay type: ADME, organism-based; conditions: in vivo, 2 h
Mus musculus [29] = test: Biodistribution in BALB/c mouse upper body at 7 to 8 KBq, iv after 120 mins; assay type: ADME, organism-based; conditions: in vivo, 2 h
Lung [30] = test: Biodistribution in BALB/c mouse lung at 7 to 8 KBq, iv after 5 mins; assay type: ADME, organism-based; conditions: in vivo
Cerebellum [31] = test: Biodistribution in BALB/c mouse cerebellum at 7 to 8 KBq, iv after 5 mins; assay type: ADME, organism-based; conditions: in vivo
Heart [32] = test: Biodistribution in BALB/c mouse heart at 7 to 8 KBq, iv after 60 mins; assay type: ADME, organism-based; conditions: in vivo, 1 h
Brain [33] = test: Biodistribution in BALB/c mouse brain at 7 to 8 KBq, iv after 60 mins; assay type: ADME, organism-based; conditions: in vivo, 1 h
Cortex [34] = test: Biodistribution in BALB/c mouse cortex at 7 to 8 KBq, iv after 5 mins; assay type: ADME, organism-based; conditions: in vivo
Intestine [35] = test: Biodistribution in BALB/c mouse intestine at 7 to 8 KBq, iv after 15 mins; assay type: ADME, organism-based; conditions: in vivo, 0.25 h
Striatum [36] = test: Biodistribution in BALB/c mouse striatum at 7 to 8 KBq, iv after 5 mins; assay type: ADME, organism-based; conditions: in vivo
Brain [37] = test: Biodistribution in BALB/c mouse brain at 7 to 8 KBq, iv after 120 mins; assay type: ADME, organism-based; conditions: in vivo, 2 h
Cortex [38] = test: Biodistribution in BALB/c mouse cortex at 7 to 8 KBq, iv after 120 mins; assay type: ADME, organism-based; conditions: in vivo, 2 h
Stomach [39] = test: Biodistribution in BALB/c mouse stomach at 7 to 8 KBq, iv after 5 mins; assay type: ADME, organism-based; conditions: in vivo
Medulla [40] = test: Biodistribution in BALB/c mouse medulla at 7 to 8 KBq, iv after 120 mins; assay type: ADME, organism-based, Medulla of organ; conditions: in vivo, 2 h
Thalamus [41] = test: Biodistribution in BALB/c mouse thalamus at 7 to 8 KBq, iv after 5 mins; assay type: ADME, organism-based; conditions: in vivo
Blood [42] = test: Biodistribution in BALB/c mouse blood at 7 to 8 KBq, iv after 60 mins; assay type: ADME, organism-based; conditions: in vivo, 1 h
Spleen [43] = test: Biodistribution in BALB/c mouse spleen at 7 to 8 KBq, iv after 5 mins; assay type: ADME, organism-based; conditions: in vivo
Mus musculus [44] = test: Biodistribution in BALB/c mouse upper body at 7 to 8 KBq, iv after 15 mins; assay type: ADME, organism-based; conditions: in vivo, 0.25 h
Thyroid gland [45] = test: Biodistribution in BALB/c mouse thyroid at 7 to 8 KBq, iv after 5 mins; assay type: ADME, organism-based; conditions: in vivo
Kidney [46] = test: Biodistribution in BALB/c mouse kidney at 7 to 8 KBq, iv after 15 mins; assay type: ADME, organism-based; conditions: in vivo, 0.25 h
Spleen [47] = test: Biodistribution in BALB/c mouse spleen at 7 to 8 KBq, iv after 15 mins; assay type: ADME, organism-based; conditions: in vivo, 0.25 h
Cerebellum [48] = test: Biodistribution in BALB/c mouse cerebellum at 7 to 8 KBq, iv after 60 mins; assay type: ADME, organism-based; conditions: in vivo, 1 h
Striatum [49] = test: Biodistribution in BALB/c mouse striatum at 7 to 8 KBq, iv after 120 mins; assay type: ADME, organism-based; conditions: in vivo, 2 h
Blood [50] = test: Biodistribution in BALB/c mouse blood at 7 to 8 KBq, iv after 5 mins; assay type: ADME, organism-based; conditions: in vivo
Heart [51] = test: Biodistribution in BALB/c mouse heart at 7 to 8 KBq, iv after 15 mins; assay type: ADME, organism-based; conditions: in vivo, 0.25 h
Stomach [52] = test: Biodistribution in BALB/c mouse stomach at 7 to 8 KBq, iv after 15 mins; assay type: ADME, organism-based; conditions: in vivo, 0.25 h
Lung [53] = test: Biodistribution in BALB/c mouse lung at 7 to 8 KBq, iv after 120 mins; assay type: ADME, organism-based; conditions: in vivo, 2 h
Intestine [54] = test: Biodistribution in BALB/c mouse intestine at 7 to 8 KBq, iv after 60 mins; assay type: ADME, organism-based; conditions: in vivo, 1 h
Mus musculus [55] = test: Biodistribution in BALB/c mouse lower body at 7 to 8 KBq, iv after 60 mins; assay type: ADME, organism-based; conditions: in vivo, 1 h

CN1CCN(C2=Nc3cc([125I])ccc3Nc3ccccc32)CC1 [[125I]I-OZAPINE]
Drug uptake (Striatum [1]): 2.11 %ID | Drug uptake (Lung [2]): 1.6 %ID | Drug uptake (Liver [3]): 10.38 %ID | Drug uptake (Heart [4]): 0.05 %ID | Drug uptake (Liver [5]): 11.12 %ID | Drug uptake (Hippocampus): 0.27 %ID | Drug uptake (Thyroid gland [6]): 0.13 %ID | Drug uptake (Stomach [7]): 7.35 %ID | Drug uptake (Thyroid gland [8]): 1.3 %ID | Drug uptake (Pancreas [9]): 0.34 %ID | Drug uptake (Cortex [10]): 6.65 %ID | Drug uptake (Pancreas [11]): 1.02 %ID | Drug uptake (Blood [12]): 3.31 %ID | Drug uptake (Mus musculus [13]): 15.02 %ID | Drug uptake (Medulla [14]): 1.2 %ID | Drug uptake (Stomach [15]): 4.61 %ID | Drug uptake (Mus musculus [16]): 4.97 %ID | Drug uptake (Liver [17]): 12.03 %ID | Drug uptake (Liver [18]): 9.8 %ID | Drug uptake (Blood [19]): 1.77 %ID | Drug uptake (Mus musculus [20]): 18.94 %ID | Drug uptake (Heart [21]): 0.6 %ID | Drug uptake (Striatum [22]): 6.76 %ID | Drug uptake (Spleen [23]): 0.04 %ID | Drug uptake (Brain [24]): 2.79 %ID | Drug uptake (Intestine [25]): 9.16 %ID | Drug uptake (Mus musculus [26]): 23.3 %ID | Drug uptake (Kidney [27]): 5.42 %ID | Drug uptake (Thalamus [28]): 0.2 %ID | Drug uptake (Mus musculus [29]): 5.72 %ID | Drug uptake (Lung [30]): 4.01 %ID | Drug uptake (Cerebellum [31]): 6.16 %ID | Drug uptake (Heart [32]): 0.13 %ID | Drug uptake (Brain [33]): 0.8 %ID | Drug uptake (Cortex [34]): 7.22 %ID | Drug uptake (Intestine [35]): 17.73 %ID | Drug uptake (Striatum [36]): 7.28 %ID | Drug uptake (Brain [37]): 0.1 %ID | Drug uptake (Cortex [38]): 0.22 %ID | Drug uptake (Stomach [39]): 1.77 %ID | Drug uptake (Medulla [40]): 0.16 %ID | Drug uptake (Thalamus [41]): 7.82 %ID | Drug uptake (Blood [42]): 3.49 %ID | Drug uptake (Spleen [43]): 0.37 %ID | Drug uptake (Mus musculus [44]): 17.41 %ID | Drug uptake (Thyroid gland [45]): 0 %ID | Drug uptake (Kidney [46]): 4.41 %ID | Drug uptake (Spleen [47]): 0.31 %ID | Drug uptake (Cerebellum [48]): 0.94 %ID | Drug uptake (Striatum [49]): 0.2 %ID | Drug uptake (Blood [50]): 4.17 %ID | Drug uptake (Heart [51]): 0.28 %ID | Drug uptake (Stomach [52]): 3.56 %ID | Drug uptake (Lung [53]): 0.17 %ID | Drug uptake (Intestine [54]): 35.19 %ID | Drug uptake (Mus musculus [55]): 10.24 %ID

— ChEMBL document CHEMBL1139986, “Synthesis and biodistribution of 8-iodo-11-(4-methylpiperazino)-5H-dibenzo[b,e][1,4]-diazepine: Iozapine” (Bioorg Med Chem Lett, 2007)
